Source: patent US6472348B1, “Pyridone derivatives and herbicides” (Kumiai Chemical Industry Co., Ltd., priority 1996, dated 2002)

What was measured:
corn (Ze) [1] = assay: Test Example 11: crop plant selectivity by upland field foliage treatment (corn), phytotoxicity; settings: upland field foliage treatment, dose 1.6 g ai/10a, 14th day after treatment
How it was run: (§1)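 Corn with pale smartweed, slender amaranth, common lambsquarters and China jute sown in sand-filled pots and grown 2 weeks in a greenhouse before foliage treatment. Herbicidal effect and crop phytotoxicity scored on day 14 after treatment against a rating standard.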

cotton (Go) = assay: Test Example 4: crop plant selectivity by upland field soil treatment (cotton), phytotoxicity; assay type: in vivo; parameters: scale not given here; settings: dose 6.3 g ai/10 a, evaluated 21st day after application
How it was run: (§2)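 Upland soil treatment: crop and weed seeds in sand pots under a soil cover, compound applied to soil, greenhouse-grown, rated visually 21 d later.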

[2] = test system: common lambsquarters (Ch); assay: Test Example 9: crop plant selectivity by upland field foliage treatment (wheat), herbicidal effects; assay type: in vivo; parameters: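 grade of growth control; 5 = at least 90%; 4 = 70 to 90%; 3 = 50 to 70%; 2 = 30 to 50%; 1 = 10 to 30%; 0 = under 10%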; settings: dose 1.6 g ai/10a, 14th day after treatment
How it was run: (§3)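 Wheat and weeds sown in sand-filled pots, grown 2 weeks in a greenhouse, then foliage-treated. Herbicidal effect and crop phytotoxicity were scored 14 days after treatment against a rating scale.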

China jute (Ab) [3] = assay: as above; assay type: in vivo; parameters: scale not given here; settings: dose 1.6 g ai/10a, 14th day after treatment
How it was run: as §3

pale smartweed (Po) [4] = assay: as above; assay type: in vivo; parameters: scale not given here; settings: dose 1.6 g ai/10a, 14th day after treatment
How it was run: as §3

slender amaranth (Am) [5] = assay: as above; assay type: in vivo; parameters: scale not given here; settings: dose 1.6 g ai/10a, 14th day after treatment
How it was run: as §3

rice flatsedge (Ci) [6] = assay: Test Example 3: herbicidal effects by upland field foliage treatment; assay type: in vivo; parameters: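 grade of growth control; 5 = at least 90%; 4 = 70 to 90%; 3 = 50 to 70%; 2 = 30 to 50%; 1 = 10 to 30%; 0 = under 10%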; settings: 100 g of the active ingredient per 10 ares, evaluated on the 14th day after treatment
How it was run: (§4)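 Using plants cultured for 2 weeks in a greenhouse from seed sown in soil-covered sand (pots 120 cm^2), the compounds were applied to foliage, and weed control was graded by standard criteria 14 days thereafter.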

[7] = test system: common lambsquarters (Ch); assay: as above; assay type: in vivo; parameters: scale not given here; settings: 100 g of the active ingredient per 10 ares, evaluated on the 14th day after treatment
How it was run: as §4

Diaitaria ciliaris (Di) = assay: as above; assay type: in vivo; parameters: scale not given here; settings: 100 g of the active ingredient per 10 ares, evaluated on the 14th day after treatment
How it was run: as §4

pale smartweed (Po) [8] = assay: as above; assay type: in vivo; parameters: scale not given here; settings: 100 g of the active ingredient per 10 ares, evaluated on the 14th day after treatment
How it was run: as §4

slender amaranth (Am) [9] = assay: as above; assay type: in vivo; parameters: scale not given here; settings: 100 g of the active ingredient per 10 ares, evaluated on the 14th day after treatment
How it was run: as §4

barnyardgrass (Ec) [10] = assay: as above; assay type: in vivo; parameters: scale not given here; settings: 100 g of the active ingredient per 10 ares, evaluated on the 14th day after treatment
How it was run: as §4

[11] = test system: common lambsquarters (Ch); assay: Test Example 4: crop plant selectivity by upland field soil treatment (cotton), herbicidal effects; assay type: in vivo; parameters: scale not given here; settings: dose 6.3 g ai/10 a, evaluated 21st day after application
How it was run: as §2

China jute (Ab) [12] = assay: as above; assay type: in vivo; parameters: scale not given here; settings: dose 6.3 g ai/10 a, evaluated 21st day after application
How it was run: as §2

pale smartweed (Po) [13] = assay: as above; assay type: in vivo; parameters: scale not given here; settings: dose 6.3 g ai/10 a, evaluated 21st day after application
How it was run: as §2

slender amaranth (Am) [14] = assay: as above; assay type: in vivo; parameters: scale not given here; settings: dose 6.3 g ai/10 a, evaluated 21st day after application
How it was run: as §2

green foxtail (Se) [15] = assay: as above; assay type: in vivo; parameters: scale not given here; settings: dose 6.3 g ai/10 a, evaluated 21st day after application
How it was run: as §2

[16] = test system: common lambsquarters (Ch); assay: Test Example 7: crop plant selectivity by upland field soil treatment (corn), herbicidal effects; assay type: in vivo; parameters: scale not given here; settings: dose 6.3 g ai/10a, 21st day after application
How it was run: (§5)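 Greenhouse pot test in sand with soil cover over seeds of corn and weeds sown together; scored 21 d after treatment.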

China jute (Ab) [17] = assay: as above; assay type: in vivo; parameters: scale not given here; settings: dose 6.3 g ai/10a, 21st day after application
How it was run: as §5

pale smartweed (Po) [18] = assay: as above; assay type: in vivo; parameters: scale not given here; settings: dose 6.3 g ai/10a, 21st day after application
How it was run: as §5

slender amaranth (Am) [19] = assay: as above; assay type: in vivo; parameters: scale not given here; settings: dose 6.3 g ai/10a, 21st day after application
How it was run: as §5

green foxtail (Se) [20] = assay: as above; assay type: in vivo; parameters: scale not given here; settings: dose 6.3 g ai/10a, 21st day after application
How it was run: as §5

rice flatsedge (Ci) [21] = assay: Test Example 2: herbicidal effects by upland field soil treatment; assay type: in vivo; settings: 100 g of the active ingredient per 10 ares;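 also: grade of growth control; 5 = at least 90%; 4 = 70 to 90%; 3 = 50 to 70%; 2 = 30 to 50%; 1 = 10 to 30%; 0 = under 10%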
Description: (§6) (Test on Herbicidal Effects by Upland Field Soil Treatment)

[22] = test system: common lambsquarters (Ch); assay: as above; assay type: in vivo; settings: 100 g of the active ingredient per 10 ares
Description: as §6

Digitaria ciliaris (Di) = assay: as above; assay type: in vivo; settings: 100 g of the active ingredient per 10 ares;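 also: grade of growth control; 5 = at least 90%; 4 = 70 to 90%; 3 = 50 to 70%; 2 = 30 to 50%; 1 = 10 to 30%; 0 = under 10%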
Description: as §6

pale smartweed (Po) [23] = assay: as above; assay type: in vivo; settings: 100 g of the active ingredient per 10 ares
Description: as §6

slender amaranth (Am) [24] = assay: as above; assay type: in vivo; settings: 100 g of the active ingredient per 10 ares
Description: as §6

barnyardgrass (Ec) [25] = assay: as above; assay type: in vivo; settings: 100 g of the active ingredient per 10 ares
Description: as §6

[26] = test system: common lambsquarters (Ch); assay: Test Example 11: crop plant selectivity by upland field foliage treatment (corn), herbicidal effects; assay type: in vivo; parameters: scale not given here; settings: upland field foliage treatment (corn test), dose 1.6 g ai/10a, 14th day after treatment
How it was run: as §1

China jute (Ab) [27] = assay: as above; assay type: in vivo; parameters: scale not given here; settings: upland field foliage treatment (corn test), dose 1.6 g ai/10a, 14th day after treatment
How it was run: as §1

pale smartweed (Po) [28] = assay: as above; assay type: in vivo; parameters: scale not given here; settings: upland field foliage treatment (corn test), dose 1.6 g ai/10a, 14th day after treatment
How it was run: as §1

slender amaranth (Am) [29] = assay: as above; assay type: in vivo; parameters: scale not given here; settings: upland field foliage treatment (corn test), dose 1.6 g ai/10a, 14th day after treatment
How it was run: as §1

corn (Ze) [30] = assay: Test Example 7: crop plant selectivity by upland field soil treatment (corn), phytotoxicity; assay type: in vivo; parameters: scale not given here; settings: dose 6.3 g ai/10a, 21st day after application
How it was run: as §5

wheat (Tr) = assay: Test Example 9: crop plant selectivity by upland field foliage treatment (wheat), phytotoxicity; settings: dose 1.6 g ai/10a, 14th day after treatment;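 also: grade of crop injury; 5 = at least 90%; 4 = 70 to 90%; 3 = 50 to 70%; 2 = 30 to 50%; 1 = 10 to 30%; 0 = under 10%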
How it was run: as §3

bulrush (Sc) = assay: Test Example 1: herbicidal effects by paddy field soil treatment; assay type: in vivo; settings: 100 g of the active ingredient per 10 ares, 21st day after the application, index 0-5 of Table 47;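 also: grade of growth control; 5 = at least 90%; 4 = 70 to 90%; 3 = 50 to 70%; 2 = 30 to 50%; 1 = 10 to 30%; 0 = under 10%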
How it was run: (§7)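 Herbicidal effect was scored against a graded standard 21 days after treatment. Seeds were sown in puddled, leveled paddy soil flooded to 3 cm depth, and the active ingredient was applied at 100 g per 10 ares before greenhouse culture.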

monochoria (Mo) = assay: as above; assay type: in vivo; settings: 100 g of the active ingredient per 10 ares, 21st day after the application, index 0-5 of Table 47
How it was run: as §7

barnyardgrass (Ec) [31] = assay: as above; assay type: in vivo; settings: 100 g of the active ingredient per 10 ares, 21st day after the application, index 0-5 of Table 47
How it was run: as §7

[32] = test system: common lambsquarters (Ch); assay: Test Example 6: crop plant selectivity by upland field soil treatment (soybean), herbicidal effects; assay type: in vivo; parameters: scale not given here; settings: dose 6.3 g ai/10a, 21st day after application
How it was run: (§8)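 Seeds are sown in sand and covered with soil. The soil is treated with test compound. Pots are kept in a greenhouse. Weed control and soybean damage are rated visually 21 days after application.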

China jute (Ab) [33] = assay: as above; assay type: in vivo; parameters: scale not given here; settings: dose 6.3 g ai/10a, 21st day after application
How it was run: as §8

pale smartweed (Po) [34] = assay: as above; assay type: in vivo; parameters: scale not given here; settings: dose 6.3 g ai/10a, 21st day after application
How it was run: as §8

slender amaranth (Am) [35] = assay: as above; assay type: in vivo; parameters: scale not given here; settings: dose 6.3 g ai/10a, 21st day after application
How it was run: as §8

green foxtail (Se) [36] = assay: as above; assay type: in vivo; parameters: scale not given here; settings: dose 6.3 g ai/10a, 21st day after application
How it was run: as §8

soybean (Gl) = assay: Test Example 6: crop plant selectivity by upland field soil treatment (soybean), phytotoxicity; assay type: in vivo; parameters: scale not given here; settings: dose 6.3 g ai/10a, 21st day after application
How it was run: as §8

[37] = 21st day after the application, index 0-5 of Table 47
[38] = evaluated on the 21st day after application

Compound	Phytotoxicity Ze (corn (Ze) [1])	Phytotoxicity Go (cotton (Go))	Herbicidal effects Ch [2]	Herbicidal effects Ab (China jute (Ab) [3])	Herbicidal effects Po (pale smartweed (Po) [4])	Herbicidal effects Am (slender amaranth (Am) [5])	Herbicidal effects Ci (rice flatsedge (Ci) [6])	Herbicidal effects Ch [7]	Herbicidal effects Di (Diaitaria ciliaris (Di))	Herbicidal effects Po (pale smartweed (Po) [8])	Herbicidal effects Am (slender amaranth (Am) [9])	Herbicidal effects Ec (barnyardgrass (Ec) [10])	Herbicidal effects Ch [11]	Herbicidal effects Ab (China jute (Ab) [12])	Herbicidal effects Po (pale smartweed (Po) [13])	Herbicidal effects Am (slender amaranth (Am) [14])	Herbicidal effects Se (green foxtail (Se) [15])	Herbicidal effects Ch [26]	Herbicidal effects Ab (China jute (Ab) [27])	Herbicidal effects Po (pale smartweed (Po) [28])	also measured
Cn1c(C(F)(F)F)ccc(-c2cc(Oc3ncccn3)c(Cl)cc2Cl)c1=O [1-41]	2	1	5	5	5	5	5	5	5	5	5	5	5	5	5	5	5	5	5	5	Herbicidal effects Ch [16]: 5; Herbicidal effects Ab (China jute (Ab) [17]): 5; Herbicidal effects Po (pale smartweed (Po) [18]): 5; Herbicidal effects Am (slender amaranth (Am) [19]): 5; Herbicidal effects Se (green foxtail (Se) [20]): 5; Herbicidal effects Ci (rice flatsedge (Ci) [21]; [37]): 5; Herbicidal effects Ch [22, 37]: 5; Herbicidal effects Di (Digitaria ciliaris (Di); [37]): 5; Herbicidal effects Po (pale smartweed (Po) [23]; [37]): 5; Herbicidal effects Am (slender amaranth (Am) [24]; [37]): 5; Herbicidal effects Ec (barnyardgrass (Ec) [25]; [37]): 5; Herbicidal effects Am (slender amaranth (Am) [29]): 5; Phytotoxicity Ze (corn (Ze) [30]): 1; Phytotoxicity Tr (wheat (Tr)): 2; Herbicidal effects Sc (bulrush (Sc)): 5; Herbicidal effects Mo (monochoria (Mo)): 5; Herbicidal effects Ec (barnyardgrass (Ec) [31]): 5
COCCOc1cc(-c2ccc(C(F)(F)F)n(C)c2=O)c(F)cc1Cl [1-170]	0	1	5	5	5	5	5	5	5	5	5	5	5	5	5	5	5	5	5	5	Herbicidal effects Ch [32]: 5; Herbicidal effects Ab (China jute (Ab) [33]): 5; Herbicidal effects Po (pale smartweed (Po) [34]): 5; Herbicidal effects Am (slender amaranth (Am) [35]): 5; Herbicidal effects Se (green foxtail (Se) [36]): 5; Herbicidal effects Ci (rice flatsedge (Ci) [21]; [38]): 5; Herbicidal effects Ch [22, 38]: 5; Herbicidal effects Di (Digitaria ciliaris (Di); [38]): 5; Herbicidal effects Po (pale smartweed (Po) [23]; [38]): 5; Herbicidal effects Am (slender amaranth (Am) [24]; [38]): 5; Herbicidal effects Ec (barnyardgrass (Ec) [25]; [38]): 5; Herbicidal effects Am (slender amaranth (Am) [29]): 5; Phytotoxicity Gl (soybean (Gl)): 2; Phytotoxicity Tr (wheat (Tr)): 1; Herbicidal effects Sc (bulrush (Sc)): 5; Herbicidal effects Mo (monochoria (Mo)): 5; Herbicidal effects Ec (barnyardgrass (Ec) [31]): 5
